Source: patent publication US7429582B2, “Dihydro[1,4]oxazino[2,3,4-hi]indazole derivatives as 5-hydroxytryptamine-6 ligands and use thereof in the treatment of attention deficit disorders” (Wyeth, priority 2006, dated 2008)
Counter-ions that a name gives are not always drawn.

Biological target: T1, human cloned 5-HT6 receptors (Homo sapiens, UniProt P50406)
T1 construct: expressed in transfected cells; host or cells: Hela cells
Settings: [3H]-LSD 3.0 nM, 120 minutes at room temperature, Hela cell membranes; read-out: 5-HT6 Binding Ki
Protocol: This operation was repeated.
The reaction was allowed to proceed in the dark for 120 minutes at room temperature, at which time, the bound ligand-receptor complex was filtered off on a 96 well unifilter with a Packard Filtermate® 196 Harvester. The bound complex caught on the filter disk was allowed to air dry and the radioactivity is measured in a Packard TopCount® equipped with six photomultiplier detectors, after the addition of 40.0 μl Microscint®-20 scintillant to each shallow well. The unifilter plate was heat-sealed and counted in a PackardTopCount® with a tritium efficiency of 31.0%.
Binding in the presence of varying concentrations of test compound was expressed as a percentage of specific binding in the absence of test compound. The results were plotted as log % bound versus log concentration of test compound. […] A linear regression line of data points was plotted, from which the IC50 value is determined and the Ki value is determined based upon the following equation: Ki=IC50/(1+L/KD) where L was the concentration of the radioactive ligand used and KD is the dissociation constant of the ligand for the receptor, both expressed in nM.

T1 sequence (P50406 whole entry): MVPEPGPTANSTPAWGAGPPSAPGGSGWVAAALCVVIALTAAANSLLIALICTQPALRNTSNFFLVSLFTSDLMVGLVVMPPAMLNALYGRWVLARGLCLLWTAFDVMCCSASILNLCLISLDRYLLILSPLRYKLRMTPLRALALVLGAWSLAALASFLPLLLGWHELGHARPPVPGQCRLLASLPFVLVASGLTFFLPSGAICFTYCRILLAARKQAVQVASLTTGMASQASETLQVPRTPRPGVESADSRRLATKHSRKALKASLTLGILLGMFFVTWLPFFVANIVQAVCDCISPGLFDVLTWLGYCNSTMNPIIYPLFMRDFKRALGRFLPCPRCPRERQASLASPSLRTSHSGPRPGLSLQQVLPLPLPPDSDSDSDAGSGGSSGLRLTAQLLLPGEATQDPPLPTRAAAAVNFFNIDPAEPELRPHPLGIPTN

| SMILES | Ki |
| --- | --- |
| O=S(=O)(c1cccc2ccccc12)c1nn2c3c(cccc13)OC(CN1CCCC1)C2 (stereo not drawn) [Example 7, 6-(1-Naphthylsulfonyl)-2-(Pyrrolidin-1-1ylmethyl)-2,3-dihydro[1,4]oxazino[2,3,4-hi]indazole Hydrochloride] | 3 nM |
| CN(C)CC1Cn2nc(S(=O)(=O)c3cccc4ccccc34)c3cccc(c32)O1 (stereo not drawn) [Example 6, N,N-dimethyl-1-[6-(1-naphthylsulfonyl)-2,3-dihydro[1,4]oxazino[2,3,4-hi]indazol-2-yl]methanamine Hydrochloride] | 1.6 nM |
| O=S(=O)(c1cccc2ccccc12)c1nn2c3c(cccc13)OC(CN1CCCCC1)C2 (stereo not drawn) [Example 8, 6-(1-Naphthylsulfonyl)-2-(piperidin-1-1ylmethyl)-2,3-dihydro[1,4]oxazino[2,3,4-hi]indazole Hydrochloride] | 160 nM |
